According to ChEMBL document CHEMBL1201862, “PubChem BioAssay data set” (2004):
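Following 48 hours of exposure in 96-well plates, responses at five concentrations were used to interpolate endpoints linearly. The concentration for 50% growth inhibition is given as GI50.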 Activity calls are given as the source filed them. Cut-off read from the data, not from the text of the source: active = GI50 up to about 1.1 µM and inactive = higher.

Key:
Assay in all cases: NCI-60 cell line screen, 48 h
U-251 = tested on: U-251
OVCAR-3 = tested on: OVCAR-3
RXF 393 = tested on: RXF 393
RPMI-8226 = tested on: RPMI-8226
SNB-75 = tested on: SNB-75
SF-268 = tested on: SF-268
OVCAR-4 = tested on: OVCAR-4
UACC-257 = tested on: UACC-257
HOP-62 = tested on: HOP-62
A549 = tested on: A549
M14 = tested on: M14
DMS-114 = tested on: DMS-114
M19-MEL = tested on: M19-MEL
LOX IMVI = tested on: LOX IMVI
RXF 631 = tested on: RXF 631
OVCAR-8 = tested on: OVCAR-8
Malme-3M = tested on: Malme-3M
HOP-18 = tested on: HOP-18
MOLT-4 = tested on: MOLT-4
KM-20L2 = tested on: KM-20L2
NCI-H23 = tested on: NCI-H23
SK-OV-3 = tested on: SK-OV-3
K562 = tested on: K562
HCT-116 = tested on: HCT-116
CCRF-CEM = tested on: CCRF-CEM
HT-29 = tested on: HT-29
SN12C = tested on: SN12C
COLO 205 = tested on: COLO 205
SK-MEL-5 = tested on: SK-MEL-5
NCI-H226 = tested on: NCI-H226
HL-60 = tested on: HL-60
SF-295 = tested on: SF-295
SNB-19 = tested on: SNB-19
KM12 = tested on: KM12
A498 = tested on: A498
SK-MEL-28 = tested on: SK-MEL-28
EKVX = tested on: EKVX
ACHN = tested on: ACHN
SW-620 = tested on: SW-620
NCI-H460 = tested on: NCI-H460
XF498 = tested on: XF498
SNB-78 = tested on: SNB-78
786-0 = tested on: 786-0
NCI-H522 = tested on: NCI-H522
IGROV-1 = tested on: IGROV-1
UACC-62 = tested on: UACC-62
LXFL 529 = tested on: LXFL 529
HOP-92 = tested on: HOP-92
SR = tested on: SR
CAKI-1 = tested on: CAKI-1
DLD-1 = tested on: DLD-1
UO-31 = tested on: UO-31
SF-539 = tested on: SF-539
TK-10 = tested on: TK-10
HCC 2998 = tested on: HCC 2998
DMS-273 = tested on: DMS-273
SK-MEL-2 = tested on: SK-MEL-2
HCT-15 = tested on: HCT-15
OVCAR-5 = tested on: OVCAR-5

Measured: GI50

NS(=O)(=O)c1ccc(NC(=O)c2cccn3c(=O)c4ccccc4nc23)cc1
inactive: U-251 > 100 µM | OVCAR-3 > 100 µM | RXF 393 > 100 µM | RPMI-8226 > 100 µM | SNB-75 > 100 µM | SF-268 > 100 µM | OVCAR-4 > 100 µM | UACC-257 > 100 µM | HOP-62 > 100 µM | A549 > 100 µM | M14 > 100 µM | DMS-114 > 100 µM | M19-MEL > 100 µM | LOX IMVI 86.3 µM | RXF 631 > 100 µM | OVCAR-8 > 100 µM | Malme-3M > 100 µM | HOP-18 > 100 µM | MOLT-4 80.2 µM | KM-20L2 > 100 µM | NCI-H23 > 100 µM | SK-OV-3 > 100 µM | K562 > 100 µM | HCT-116 > 100 µM | CCRF-CEM > 100 µM | HT-29 > 100 µM | SN12C > 100 µM | COLO 205 > 100 µM | SK-MEL-5 > 100 µM | NCI-H226 > 100 µM | HL-60 > 100 µM | SF-295 > 100 µM | SNB-19 > 100 µM | KM12 41.2 µM | A498 > 100 µM | SK-MEL-28 > 100 µM | EKVX > 100 µM | ACHN > 100 µM | SW-620 > 100 µM | NCI-H460 > 100 µM | XF498 > 100 µM | SNB-78 > 100 µM | 786-0 > 100 µM | NCI-H522 > 100 µM | IGROV-1 > 100 µM | UACC-62 > 100 µM | LXFL 529 > 100 µM | HOP-92 > 100 µM | SR 79.8 µM | CAKI-1 > 100 µM | DLD-1 > 100 µM | UO-31 85.5 µM | SF-539 > 100 µM | TK-10 > 100 µM

O=C1c2c(c3c4ccccc4[nH]c3c3[nH]c4ccccc4c23)C(=O)N1Cc1ccccc1
inactive: U-251 2.33 µM | OVCAR-3 2.81 µM | RXF 393 1.51 µM | RPMI-8226 2.36 µM | SNB-75 3.09 µM | SF-268 3.01 µM | OVCAR-4 3.06 µM | UACC-257 3.75 µM | HOP-62 3.95 µM | A549 3.48 µM | M14 3.31 µM | DMS-114 2.82 µM | M19-MEL 3.64 µM | LOX IMVI 2.44 µM | RXF 631 2.32 µM | OVCAR-8 4.47 µM | Malme-3M 3.54 µM | HCC 2998 4.27 µM | MOLT-4 2.14 µM | KM-20L2 2.94 µM | NCI-H23 2.08 µM | DMS-273 2.74 µM | SK-OV-3 2.96 µM | K562 3.05 µM | HCT-116 2.74 µM | SK-MEL-2 3.2 µM | CCRF-CEM 2.96 µM | HT-29 4.04 µM | SN12C 2.1 µM | COLO 205 2.2 µM | SK-MEL-5 1.85 µM | NCI-H226 2.1 µM | SF-295 3.9 µM | SNB-19 2.8 µM | KM12 3.08 µM | SK-MEL-28 2.89 µM | EKVX 5.93 µM | ACHN 2.87 µM | SW-620 3.7 µM | NCI-H460 3.3 µM | XF498 2 µM | SNB-78 3.06 µM | 786-0 3.13 µM | NCI-H522 1.77 µM | IGROV-1 4.09 µM | UACC-62 4.25 µM | LXFL 529 3.44 µM | HOP-92 2.43 µM | CAKI-1 3.65 µM | OVCAR-5 2.62 µM | DLD-1 3.64 µM | UO-31 2.53 µM | SF-539 2.37 µM | TK-10 4.25 µM
2.06 µM: HCT-15

C/C(Cc1ccccc1)=N\NC(N)=S
> 100 µM: HCT-15
inactive: U-251 > 100 µM | RXF 393 70.1 µM | RPMI-8226 92.9 µM | SNB-75 > 100 µM | OVCAR-4 > 100 µM | M14 > 100 µM | DMS-114 76 µM | M19-MEL > 100 µM | LOX IMVI > 100 µM | RXF 631 > 100 µM | HOP-18 > 100 µM | MOLT-4 > 100 µM | KM-20L2 > 100 µM | NCI-H23 > 100 µM | DMS-273 > 100 µM | SK-OV-3 > 100 µM | K562 > 100 µM | CCRF-CEM > 100 µM | SN12C > 100 µM | COLO 205 > 100 µM | HL-60 > 100 µM | SNB-19 > 100 µM | A498 > 100 µM | SK-MEL-28 > 100 µM | ACHN > 100 µM | NCI-H460 > 100 µM | XF498 > 100 µM | SNB-78 > 100 µM | IGROV-1 > 100 µM | UACC-62 > 100 µM | LXFL 529 > 100 µM | HOP-92 67.1 µM | SF-539 > 100 µM

CN(C)c1nnnn1-c1c(N)n(C)c(=O)n(C)c1=O
> 100 µM: HCT-15
inactive: U-251 > 100 µM | OVCAR-3 > 100 µM | RPMI-8226 > 100 µM | SNB-75 > 100 µM | SF-268 > 100 µM | OVCAR-4 > 100 µM | UACC-257 > 100 µM | HOP-62 > 100 µM | A549 > 100 µM | DMS-114 > 100 µM | M19-MEL > 100 µM | LOX IMVI > 100 µM | RXF 631 > 100 µM | OVCAR-8 > 100 µM | Malme-3M > 100 µM | HOP-18 > 100 µM | HCC 2998 > 100 µM | MOLT-4 > 100 µM | KM-20L2 > 100 µM | NCI-H23 > 100 µM | DMS-273 > 100 µM | SK-OV-3 > 100 µM | K562 > 100 µM | HCT-116 > 100 µM | SK-MEL-2 > 100 µM | CCRF-CEM > 100 µM | HT-29 > 100 µM | SN12C > 100 µM | COLO 205 > 100 µM | SK-MEL-5 > 100 µM | NCI-H226 > 100 µM | HL-60 > 100 µM | SF-295 > 100 µM | SNB-19 > 100 µM | KM12 > 100 µM | A498 > 100 µM | SK-MEL-28 > 100 µM | EKVX > 100 µM | ACHN > 100 µM | SW-620 > 100 µM | NCI-H460 > 100 µM | XF498 > 100 µM | SNB-78 > 100 µM | 786-0 > 100 µM | NCI-H522 > 100 µM | IGROV-1 > 100 µM | UACC-62 > 100 µM | LXFL 529 > 100 µM | HOP-92 > 100 µM | CAKI-1 > 100 µM | OVCAR-5 > 100 µM | DLD-1 > 100 µM | UO-31 > 100 µM | SF-539 > 100 µM | TK-10 > 100 µM

O=C(O)C1=C(CO)Oc2cc3c(cc2C1c1ccc2c(c1)OCO2)OCO3 (stereo not drawn)
inactive: U-251 > 100 µM | OVCAR-3 > 100 µM | RXF 393 > 100 µM | RPMI-8226 > 100 µM | SNB-75 > 100 µM | OVCAR-4 > 100 µM | UACC-257 > 100 µM | HOP-62 > 100 µM | A549 > 100 µM | M14 > 100 µM | DMS-114 > 100 µM | M19-MEL > 100 µM | LOX IMVI > 100 µM | RXF 631 > 100 µM | OVCAR-8 > 100 µM | Malme-3M > 100 µM | HOP-18 > 100 µM | MOLT-4 > 100 µM | KM-20L2 > 100 µM | NCI-H23 > 100 µM | DMS-273 > 100 µM | SK-OV-3 > 100 µM | K562 > 100 µM | HCT-116 > 100 µM | SK-MEL-2 > 100 µM | CCRF-CEM > 100 µM | HT-29 > 100 µM | SN12C > 100 µM | COLO 205 > 100 µM | SK-MEL-5 > 100 µM | HL-60 > 100 µM | SF-295 > 100 µM | SNB-19 > 100 µM | SK-MEL-28 > 100 µM | EKVX > 100 µM | ACHN > 100 µM | SW-620 > 100 µM | NCI-H460 > 100 µM | XF498 > 100 µM | SNB-78 > 100 µM | IGROV-1 > 100 µM | UACC-62 > 100 µM | HOP-92 > 100 µM | CAKI-1 > 100 µM | DLD-1 > 100 µM | UO-31 > 100 µM | SF-539 > 100 µM | TK-10 > 100 µM
> 100 µM: HCT-15
